The test system of this assay is liver. Put plainly: CCl4 induced hepatotoxicity in rats (serum AST/ALT). The assay is classed as in vivo, rat. The settings on record: for protection against CCl4 hepatotoxicity (in words): rats, serum enzyme levels; for inhibition in vivo at 100 mg/kg: Rattus norvegicus, ip, 48 h, read-out: % Hepatoprotection. The method, then: In vivo experiments were performed to determine if alpha-TS administration protects the liver from chemical toxicity. The liver is the target organ for CCl4. CCl4 is a hepatotoxic agent that induces centrilobular liver necrosis through its metabolism to free radicals. Male Sprague-Dawley rats were given an intraperitoneal dose (100 mg/kg) of a tocopherol analog 24 hours prior to a CCl4 challenge (2.9g/kg given by oral garage). Forty eight hours after the challenge, the rats were sacrificed and the levels of aspartate aminotransferase (AST) and alanine aminotransferase (ALT) were measured.
As discussed above, SGOT levels provide a clinical assessment of hepatotoxicity (liver damage).
Succinate analogs were administered to male Sprague-Dawley rats 20 hours prior to a 1 g CCl4 /kg body weight oral challenge and the AST and ALT serum enzyme levels were measured 48 hours after the challenge.
Similar to the experiments were described above, the ionizable congeners were administered to Sprague-Dawley rats by i.p. injection of a 100 mg ionizable congener/kg body weight dose 20 hours prior to oral administration of a 1 g/kg dose of CCl4, and the AST and ALT levels were measured 48 hours after the CCl4 challenge.

Where [1] appears, read: 100 mg/kg ip, 48 h after 1 g/kg CCl4 (Table 31).
[2] abbreviates: 100 mg/kg ip, 48 h after 1 g/kg CCl4 (Table 33).
The mark [3] stands for this setting: 100 mg/kg ip, PEG 400 vehicle, 48 h after 1 g/kg CCl4 (Table 34).
Setting [4] is: 100 mg/kg ip, peanut oil vehicle, 48 h after 1 g/kg CCl4 (Table 39).
[5] abbreviates: 100 mg/kg ip, 48 h after 1 g/kg CCl4 (Table 37).
The mark [6] stands for this setting: 20 h prior, 48 h after 1 g/kg CCl4 (Table 36).
Setting [7] is: 100 mg/kg ip, 48 h after 1 g/kg CCl4 (Table 38).

Where a name gives a salt, the structure may show the parent alone.

As for `CC(=O)O[C@H]1CC[C@@]2(C)C(=CC[C@H]3[C@@H]4CC[C@H]([C@H](C)CCCC(C)C)[C@@]4(C)CC[C@@H]32)C1` [Cholesterol acetate, reference compound], the “protection against CCl4 hepatotoxicity (in words)” value (“protection” below) is reported as “provided no protection”. Also, under setting [1], the ALT is listed as 0.96 ± 0.32 10^3 units/L and the AST was 3.06 ± 1.06 10^3 units/L.

For `CC(C)CCC[C@@H](C)[C@H]1CC[C@H]2[C@@H]3CC=C4C[C@@H](OS(=O)(=O)O)CC[C@]4(C)[C@H]3CC[C@]12C` [Cholesteryl 3-sulfate, sodium salt], the inhibition in vivo at 100 mg/kg turned out to be 90% and the “protection” value is recorded as “potent cytoprotective agents in vivo”. Further, under setting [2], the ALT is given as 0.240 ± .133 10^3 units/L and the AST was 0.86 ± 0.35 10^3 units/L.

`CC(C)CCC[C@@H](C)[C@H]1CC[C@H]2[C@@H]3CC=C4C[C@@H](OC(=O)c5ccccc5C(=O)O)CC[C@]4(C)[C@H]3CC[C@]12C` [Cholesteryl hydrogen phthalate]: the inhibition in vivo at 100 mg/kg amounted to 100% and the “protection” value is on record as “potent cytoprotective agents in vivo”. Under setting [3], the ALT is 0.06 ± 0.03 10^3 units/L and the AST was 0.30 ± 0.12 10^3 units/L.

Take `C[C@]12CC[C@H](OC(=O)CCC(=O)O)CC1=CC[C@@H]1[C@@H]2CC[C@]2(C)C(=O)CC[C@@H]12` [Dehydroepiandosterone 3-succinate]: the inhibition in vivo at 100 mg/kg was determined as 0%. Further, under setting [4], the ALT is reported as 3.89 ± 1.77 10^3 units/L and the AST was 10.42 ± 3.36 10^3 units/L.

For `C[C@]12CC[C@H](OS(=O)(=O)O)CC1=CC[C@@H]1[C@@H]2CC[C@]2(C)C(=O)CC[C@@H]12` [Dehydroepiandosterone 3-sulfate], the inhibition in vivo at 100 mg/kg was determined as 4%. Moreover, under setting [3], the ALT is given as 3.89 ± 0.81 10^3 units/L and the AST was 13.85 ± 0.37 10^3 units/L.

Turning to `CC(C)CCC[C@@H](C)[C@H]1CC[C@H]2[C@@H]3CC[C@H]4C[C@@H](OC(=O)CCC(=O)O)CC[C@]4(C)[C@H]3CC[C@]12C` [Dihydrocholesterol succinate, tris salt], the inhibition in vivo at 100 mg/kg turned out to be 100%. Further, under setting [5], the ALT is 0.09 ± 0.03 10^3 units/L and the AST is given as 0.19 ± 0.05 10^3 units/L.

As to `CC(C)CCC[C@@H](C)[C@H]1CC[C@H]2[C@@H]3CC[C@H]4C[C@@H](OC(=O)CCC(=O)O)CC[C@]4(C)[C@H]3CC[C@]12C` [Dihydrocholesterol succinate], the “protection” value is “complete protection against hepatotoxicity”. Under setting [6], the ALT is 0.39 ± 0.40 10^3 units/L and the AST is given as 0.44 ± 0.29 10^3 units/L.

For `CC(C)[C@@H](C)/C=C/[C@@H](C)[C@H]1CC[C@H]2C3=CC=C4C[C@@H](OC(=O)CCC(=O)O)CC[C@]4(C)[C@H]3CC[C@]12C` [Ergosterol succinate, tris salt], the inhibition in vivo at 100 mg/kg came out at 80% and the “protection” value is “protection against hepatotoxicity”. For the same molecule, under setting [7], the ALT is on record as 0.46 ± 0.25 10^3 units/L and the AST is reported as 0.80 ± 0.28 10^3 units/L.

Consider `CC(C)[C@@H](C)/C=C/[C@@H](C)[C@H]1CC[C@H]2C3=CC=C4C[C@@H](OS(=O)(=O)O)CC[C@]4(C)[C@H]3CC[C@]12C` [Ergosterol sulfate, potassium salt], for which the inhibition in vivo at 100 mg/kg came out at 86% and the “protection” value was “protection against hepatotoxicity”. Under setting [7], the ALT is 0.28 ± 0.37 10^3 units/L and the AST is recorded as 0.58 ± 0.53 10^3 units/L.

In the case of `CC(C)[C@@H](C)/C=C/[C@@H](C)[C@H]1CC[C@H]2C3=CC=C4C[C@@H](O)CC[C@]4(C)[C@H]3CC[C@]12C` [Ergosterol, reference compound], the “protection” value is listed as “cytoprotection from toxic CCl4 insults”. Besides, under setting [7], the ALT was 0.93 ± 0.48 10^3 units/L and the AST was 1.73 ± 0.58 10^3 units/L. Moreover, under setting [4], the ALT is 0.63 ± 0.45 10^3 units/L and the AST was 1.90 ± 0.73 10^3 units/L.

The values above are taken from patent publication US5336485A, “Method for protecting animals against tacrine induced cytotoxic injury using sterol compounds” (priority 1993, dated 1994).
